Data published in patent publication US5484780A, “Angiotensin II antagonists” (Eli Lilly and Company, priority 1994, dated 1996).

Target: T1, angiotensin-induced vasoconstriction (rabbit aorta) (Oryctolagus cuniculus, UniProt P34976)
T1 construct: The thoracic aortas were removed and cleaned of excess fat and connective tissue; from tissue; host or cells: thoracic aorta rings of New Zealand white rabbits (animals from Hazelton)
T1 sequence (P34976 1-359): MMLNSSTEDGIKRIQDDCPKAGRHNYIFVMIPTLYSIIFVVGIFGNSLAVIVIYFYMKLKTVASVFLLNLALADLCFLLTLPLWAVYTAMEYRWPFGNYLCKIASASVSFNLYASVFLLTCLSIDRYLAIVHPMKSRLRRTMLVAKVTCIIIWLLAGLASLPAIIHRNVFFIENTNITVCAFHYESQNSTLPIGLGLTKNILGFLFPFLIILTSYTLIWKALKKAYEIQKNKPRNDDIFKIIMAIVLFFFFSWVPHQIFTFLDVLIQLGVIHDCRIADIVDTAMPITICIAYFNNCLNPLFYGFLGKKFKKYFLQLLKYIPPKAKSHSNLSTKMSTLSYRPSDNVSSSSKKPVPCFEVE
Assay: Rabbit Aorta Test System: antagonism of angiotensin II contraction of aortic rings
Set-up: species or system New Zealand white rabbits
Conditions: contraction to AII 10^-10 to 10^-7 M, 30 minutes incubation with compound; pA2 = -log KB
Procedure: As previously discussed, the compounds of Formula I are potent effective antagonists of angiotensin II. The ability of representative compounds of Formula I to block angiotensin II receptor binding was determined using the adrenal glomerulosa assay. The ability to antagonize angiotensin-induced vasoconstriction was evaluated in the rabbit aorta test system.
New Zealand white rabbits (Hazelton, 2-3 kg) were sacrificed by cervical dislocation. The thoracic aortas were removed and cleaned of excess fat and connective tissue. Rings of tissue (3 mm wide) were mounted in 10 ml tissue baths between 2 L-shaped stainless steel hooks. The lower hook was attached to a stationary rod. The upper hook was attached to a force displacement transducer (Grass model FT.03). The bath chambers were maintained at 37° C., aerated with 95% 02 /5% C02, and contained physiological solution of the following composition (mM): NaCl, 117; glucose, 5.6; NaH2 PO4, 1.0; MgS04, 0.7; KCl, 5.2; CaCl2, 1.8; NaHCO3, 26; and phentolamine HCl, 0.003.
Rings were equilibrated for 1 hour with 2 g of tension. During the equilibration period, the tissues were washed by overflow every 15 minutes. Rings were then exposed to 10^-8 M angiotensin II (AII) and were allowed to contract until a steady state was reached. Tissues were then washed every 15 minutes for 1 hour. This was repeated every hour until the AII response stabilized. A cumulative concentration response curve to AII (10^-10 to 10^-7 M) was then obtained. At the conclusion of the concentration response curve, tissues were washed every 2 minutes until baseline tension was reached, then every 15 minutes for 30 minutes. Compounds were added in a volume of 10 μl DMSO and allowed to incubate for 30 minutes before repeating the concentration response curve to AII. Contractions to AII were expressed as a percent of the maximum contraction obtained in the control curve (the first AII concentration response curve). EC50 's (concentration that contracted the tissues to 1/2 the control maximum) for each curve were calculated using a 4 parameter logistics model (NonLin, SAS Institute). Potency data for each compound tested are expressed as the pA2 (defined as-log KB, where KB =[molar concentration of antagonist]/[(EC50 AII with antagonist/EC50 AII without antagonist)-1]).

SMILES	Kb [nM]	Rabbit Aorta (pA2)
CCCCCC[C@H](C(=O)N1C[C@@H](Oc2ccc(OCCCC)cc2)C[C@H]1C(=O)O)n1cnc(NC(=O)c2ccccc2S(=O)(=O)O)c1 [Example 50]	2	
CCCCCC[C@H](C(=O)N1C[C@@H](Oc2ccc(OCC(C)C)cc2)C[C@H]1C(=O)O)n1cnc(NC(=O)c2ccccc2S(=O)(=O)O)c1 [Example 51]	12.6	
CCCCCC[C@H](C(=O)N1C[C@@H](Oc2ccc(OC(C)(C)C)cc2)C[C@H]1C(=O)O)n1cnc(NC(=O)c2ccccc2S(=O)(=O)O)c1 [Example 52]	3.98	
CCCCCC[C@H](C(=O)N1C[C@@H](Oc2ccc(OC(F)(F)F)cc2)C[C@H]1C(=O)O)n1cnc(NC(=O)c2ccccc2S(=O)(=O)O)c1 [Example 53]	10	
CCCCCC[C@H](C(=O)N1C[C@@H](Oc2ccc(OC3CCCC3)cc2)C[C@H]1C(=O)O)n1cnc(NC(=O)c2ccccc2S(=O)(=O)O)c1 [Example 54]	2.51	
CCCCCC[C@H](C(=O)N1C[C@@H](Oc2ccc(OCC3CC3)cc2)C[C@H]1C(=O)O)n1cnc(NC(=O)c2ccccc2S(=O)(=O)O)c1 [Example 55]	0.398	
CCCCCC[C@H](C(=O)N1C[C@@H](Oc2ccc(OCC3CCCCC3)cc2)C[C@H]1C(=O)O)n1cnc(NC(=O)c2ccccc2S(=O)(=O)O)c1 [Example 56]	31.6	
CCCCCC[C@H](C(=O)N1C[C@@H](Oc2ccc(OCC(=O)O)cc2)C[C@H]1C(=O)O)n1cnc(NC(=O)c2ccccc2S(=O)(=O)O)c1 [Example 57]	0.316	
CCCCCC[C@H](C(=O)N1C[C@@H](Oc2ccc(OC(C)(C)C(=O)O)cc2)C[C@H]1C(=O)O)n1cnc(NC(=O)c2ccccc2S(=O)(=O)O)c1 [Example 58]	0.794	
CCCCCC[C@H](C(=O)N1C[C@@H](Oc2ccc3c(c2)OCO3)C[C@H]1C(=O)O)n1cnc(NC(=O)c2ccccc2S(=O)(=O)O)c1 [Example 59]	0.631	
CCCCCC[C@H](C(=O)N1C[C@@H](Oc2ccc(OC)c(OC)c2)C[C@H]1C(=O)O)n1cnc(NC(=O)c2ccccc2S(=O)(=O)O)c1 [Example 60]	15.8	
CCCCCC[C@H](C(=O)N1C[C@@H](Oc2ccc3ccccc3c2)C[C@H]1C(=O)O)n1cnc(NC(=O)c2ccccc2S(=O)(=O)O)c1 [Example 61]	3.16	
CCCCCC[C@H](C(=O)N1C[C@@H](Oc2ccc3ccc(OC)cc3c2)C[C@H]1C(=O)O)n1cnc(NC(=O)c2ccccc2S(=O)(=O)O)c1 [Example 62]	1	
CCCCCC[C@H](C(=O)N1C[C@@H](Oc2ccc3ccc(C(=O)O)cc3c2)C[C@H]1C(=O)O)n1cnc(NC(=O)c2ccccc2S(=O)(=O)O)c1 [Example 63]	1.58	
CCCCCC[C@H](C(=O)N1C[C@@H](Oc2cccc3ccccc23)C[C@H]1C(=O)O)n1cnc(NC(=O)c2ccccc2S(=O)(=O)O)c1 [Example 64]	2000	
CCCCCC[C@H](C(=O)N1C[C@@H](Oc2ccc3oc(C)cc3c2)C[C@H]1C(=O)O)n1cnc(NC(=O)c2ccccc2S(=O)(=O)O)c1 [Example 69]	0.501	
CCCCCC[C@H](C(=O)N1C[C@@H](Oc2ccc3oc(C(=O)O)cc3c2)C[C@H]1C(=O)O)n1cnc(NC(=O)c2ccccc2S(=O)(=O)O)c1 [Example 70]	0.501	
CCCCCC[C@H](C(=O)N1C[C@@H](Oc2ccc3oc4ccccc4c3c2)C[C@H]1C(=O)O)n1cnc(NC(=O)c2ccccc2S(=O)(=O)O)c1 [Example 71]	25.1	

More lines, now with the values ahead:

Kb [nM]	Rabbit Aorta (pA2)	SMILES
3.16		CCCCCC[C@H](C(=O)N1C[C@@H](Oc2ccc3sccc3c2)C[C@H]1C(=O)O)n1cnc(NC(=O)c2ccccc2S(=O)(=O)O)c1 [Example 72]
158		CCCCCC[C@H](C(=O)N1C[C@@H](Oc2cccnc2)C[C@H]1C(=O)O)n1cnc(NC(=O)c2ccccc2S(=O)(=O)O)c1 [Example 73]
100		CCCCCC[C@H](C(=O)N1C[C@@H](Oc2ccon2)C[C@H]1C(=O)O)n1cnc(NC(=O)c2ccccc2S(=O)(=O)O)c1 [Example 74]
1		CCCCCC[C@H](C(=O)N1C[C@@H](Oc2ccc(OC)cc2)C[C@H]1C(=O)O)n1cnc(NC(=O)c2ccccc2-c2nn[nH]n2)c1 [Example 75]
31.6		CCCCCC[C@H](C(=O)N1C[C@@H](Oc2ccc(OC(C)(C)C)cc2)C[C@H]1C(=O)O)n1cnc(NC(=O)c2ccccc2-c2nn[nH]n2)c1 [Example 76]
1.58		CCCCCC[C@H](C(=O)N1C[C@@H](Oc2ccc(CC(=O)O)cc2)C[C@H]1C(=O)O)n1cnc(NC(=O)c2ccccc2-c2nn[nH]n2)c1 [Example 77]
3.16		CCCCCC[C@H](C(=O)N1C[C@@H](Oc2ccc(C(=O)O)cc2)C[C@H]1C(=O)O)n1cnc(NC(=O)c2ccccc2-c2nn[nH]n2)c1 [Example 78]
0.501		CCCCCC[C@H](C(=O)N1C[C@@H](Oc2ccc(OCC(=O)O)cc2)C[C@H]1C(=O)O)n1cnc(NC(=O)c2ccccc2-c2nn[nH]n2)c1 [Example 79]
1.58		CCCCCC[C@H](C(=O)N1C[C@@H](Oc2ccc(O)cc2)C[C@H]1C(=O)O)n1cnc(NC(=O)c2cccc(O)c2C(=O)O)c1 [Example 81]
0.316		CCCCCC[C@H](C(=O)N1C[C@@H](Oc2ccc(OC)cc2)C[C@H]1C(=O)O)n1cnc(NC(=O)c2cccc(O)c2C(=O)O)c1 [Example 82]
	8.9	CCCCCC[C@H](C(=O)N1C[C@@H](Oc2ccc(OCC)cc2)C[C@H]1C(=O)O)n1cnc(NC(=O)c2cccc(O)c2C(=O)O)c1 [Example 83]
10		CCCCCC[C@H](C(=O)N1C[C@@H](Oc2ccc(OCCCC)cc2)C[C@H]1C(=O)O)n1cnc(NC(=O)c2cccc(O)c2C(=O)O)c1 [Example 84]
1.26		CCCCCC[C@H](C(=O)N1C[C@@H](Oc2ccc(C(=O)O)cc2)C[C@H]1C(=O)O)n1cnc(NC(=O)c2cccc(O)c2C(=O)O)c1 [Example 85]
0.794		CCCCCC[C@H](C(=O)N1C[C@@H](Oc2ccc(CC(=O)O)cc2)C[C@H]1C(=O)O)n1cnc(NC(=O)c2cccc(O)c2C(=O)O)c1 [Example 86]
31.6		CCCCCC[C@H](C(=O)N1C[C@@H](Oc2ccc(C#N)cc2)C[C@H]1C(=O)O)n1cnc(NC(=O)c2cccc(O)c2C(=O)O)c1 [Example 87]
6.31		CCCCCC[C@H](C(=O)N1C[C@@H](Oc2ccc3c(c2)CCC3)C[C@H]1C(=O)O)n1cnc(NC(=O)c2cccc(O)c2C(=O)O)c1 [Example 88]
31.6		CCCCCC[C@H](C(=O)N1C[C@@H](Oc2ccc3ccccc3c2)C[C@H]1C(=O)O)n1cnc(NC(=O)c2cccc(O)c2C(=O)O)c1 [Example 89]
20		CCCCCC[C@H](C(=O)N1C[C@@H](Oc2ccc(OC)c(OC)c2)C[C@H]1C(=O)O)n1cnc(NC(=O)c2cccc(O)c2C(=O)O)c1 [Example 90]
	10.1	CCCCCCC(C(=O)N1C[C@@H](Oc2ccc(CP(=O)(O)O)cc2)C[C@H]1C(=O)O)n1cnc(NC(=O)c2ccccc2S(=O)(=O)O)c1 (some centres unmarked) [Example 91]
0.126		CCCCCC[C@H](C(=O)N1C[C@@H](Oc2ccc(NS(C)(=O)=O)cc2)C[C@H]1C(=O)O)n1cnc(NC(=O)c2ccccc2S(=O)(=O)O)c1 [Example 92, 1-[1-oxo-2-[4-(2-sulfobenzoyl)amino-1H-imidazol-1-yl]octyl]-4-cis-[(4-N-methanesulfonamido)-phenoxy]-L-proline]
